Reference: the NIST ThermoML archive (doi:10.1016/j.jct.2006.10.008)

Key:
[1] = xn = mol fraction of the nth substance listed; settings: 298.15 K, 101 kPa, Liquid
[2] = excess molar enthalpy (molar enthalpy of mixing); xn = mol fraction of the nth substance listed; settings: 298.15 K, 101 kPa, Liquid, Calvet calorimetry

ClCCCCCl [1,4-dichlorobutane] + CCOC=O
Settings	excess molar enthalpy, [2] [kcal/mol]	mass density, [1] [kg/m3]
x2 = 0.0774	–	1120.56
x2 = 0.083	0.0262	–
x2 = 0.1549	–	1107.96
x2 = 0.1706	0.042	–
x2 = 0.229	–	1095.35
x2 = 0.256	0.0527	–
x2 = 0.2982	–	1083.08
x2 = 0.3368	0.0584	–
x2 = 0.3653	–	1070.71
x2 = 0.4094	0.0582	–
x2 = 0.4302	–	1058.33
x2 = 0.473	0.055	–
x2 = 0.4921	–	1046.05
x2 = 0.5279	0.0505	–
x2 = 0.5517	–	1033.83
x2 = 0.5977	0.0395	–
x2 = 0.6131	–	1020.82
x2 = 0.6452	0.034	–
x2 = 0.6683	–	1008.67
x2 = 0.6966	0.025	–
x2 = 0.7211	–	996.7
x2 = 0.7477	0.0167	–
x2 = 0.7717	–	984.84
x2 = 0.803	0.0108	–
x2 = 0.8212	–	973.13
x2 = 0.8543	0.00633	–
x2 = 0.8674	–	961.66
x2 = 0.907	0.00373	–
x2 = 0.9134	–	949.8
x2 = 0.9569	0.00222	938.37
